Measurements published in article PMC6199744, “Development of Chemical Proteomics for the Folateome and Analysis of the Kinetoplastid Folateome” (ACS Infectious Diseases, 2018).
Like-named read-outs stand apart in the source and are kept apart here.

Tests used:
Format in all cases: binding
[1] = biological target: T1, HeLa cell extract proteins (Homo sapiens, UniProt Q9Y6E2)
T1 construct: endogenous in cells; host or cells: HeLa cell extract
T1 sequence (Q9Y6E2 1-419): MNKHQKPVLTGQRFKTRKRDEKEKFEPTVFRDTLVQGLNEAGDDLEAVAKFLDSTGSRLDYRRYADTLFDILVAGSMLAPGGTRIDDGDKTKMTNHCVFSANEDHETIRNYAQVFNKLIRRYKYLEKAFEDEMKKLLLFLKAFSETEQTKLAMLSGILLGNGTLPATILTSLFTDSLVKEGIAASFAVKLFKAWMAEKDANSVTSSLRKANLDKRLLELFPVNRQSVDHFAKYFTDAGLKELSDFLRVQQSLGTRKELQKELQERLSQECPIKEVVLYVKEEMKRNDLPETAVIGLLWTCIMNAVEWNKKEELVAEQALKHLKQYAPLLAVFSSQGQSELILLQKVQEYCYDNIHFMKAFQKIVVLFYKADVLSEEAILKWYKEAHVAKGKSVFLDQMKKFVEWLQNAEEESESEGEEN

[2] = biological target: T2, HeLa cell extract proteins (Homo sapiens, UniProt O14744)
T2 construct: endogenous in cells; host or cells: HeLa cell extract

[3] = biological target: T3, HeLa cell extract proteins (Homo sapiens, UniProt P00338)
T3 construct: endogenous in cells; host or cells: HeLa cell extract

[4] = biological target: T4, HeLa cell extract proteins (Homo sapiens, UniProt P26447)
T4 construct: endogenous in cells; host or cells: HeLa cell extract

[5] = biological target: T5, HeLa cell extract proteins (Homo sapiens, UniProt P52948)
T5 construct: endogenous in cells; host or cells: HeLa cell extract

[6] = biological target: T6, HeLa cell extract proteins (Homo sapiens, UniProt O75390)
T6 construct: endogenous in cells; host or cells: HeLa cell extract
T6 sequence (O75390 28-466): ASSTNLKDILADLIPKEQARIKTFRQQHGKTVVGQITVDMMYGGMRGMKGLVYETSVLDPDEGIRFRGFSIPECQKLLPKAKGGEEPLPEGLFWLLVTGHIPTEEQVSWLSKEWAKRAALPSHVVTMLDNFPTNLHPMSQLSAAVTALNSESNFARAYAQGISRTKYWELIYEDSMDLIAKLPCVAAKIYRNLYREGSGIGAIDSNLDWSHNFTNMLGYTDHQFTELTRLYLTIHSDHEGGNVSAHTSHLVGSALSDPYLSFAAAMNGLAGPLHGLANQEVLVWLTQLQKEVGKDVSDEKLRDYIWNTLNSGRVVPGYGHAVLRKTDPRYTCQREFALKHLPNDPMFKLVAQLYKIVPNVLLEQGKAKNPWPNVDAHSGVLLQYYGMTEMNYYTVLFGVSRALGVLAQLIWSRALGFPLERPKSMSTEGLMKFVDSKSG

[7] = biological target: T7, HeLa cell extract proteins (Homo sapiens, UniProt Q9UK99)
T7 construct: endogenous in cells; host or cells: HeLa cell extract
T7 sequence (Q9UK99 1-471): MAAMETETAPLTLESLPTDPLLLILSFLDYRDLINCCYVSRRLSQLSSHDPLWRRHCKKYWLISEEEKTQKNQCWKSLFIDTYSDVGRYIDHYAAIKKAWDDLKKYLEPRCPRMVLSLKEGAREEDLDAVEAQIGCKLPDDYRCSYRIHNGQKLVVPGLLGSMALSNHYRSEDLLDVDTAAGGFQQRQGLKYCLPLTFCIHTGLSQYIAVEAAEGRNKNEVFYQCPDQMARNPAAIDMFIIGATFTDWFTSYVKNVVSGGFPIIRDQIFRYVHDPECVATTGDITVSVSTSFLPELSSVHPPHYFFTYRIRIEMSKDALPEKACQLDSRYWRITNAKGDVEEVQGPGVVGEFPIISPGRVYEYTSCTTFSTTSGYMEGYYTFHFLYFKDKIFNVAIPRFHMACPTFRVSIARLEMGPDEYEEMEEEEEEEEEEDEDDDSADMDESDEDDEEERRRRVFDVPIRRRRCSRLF

[8] = biological target: T8, HeLa cell extract proteins (Homo sapiens, UniProt Q709F0)
T8 construct: endogenous in cells; host or cells: HeLa cell extract
T8 sequence (Q709F0 1-780): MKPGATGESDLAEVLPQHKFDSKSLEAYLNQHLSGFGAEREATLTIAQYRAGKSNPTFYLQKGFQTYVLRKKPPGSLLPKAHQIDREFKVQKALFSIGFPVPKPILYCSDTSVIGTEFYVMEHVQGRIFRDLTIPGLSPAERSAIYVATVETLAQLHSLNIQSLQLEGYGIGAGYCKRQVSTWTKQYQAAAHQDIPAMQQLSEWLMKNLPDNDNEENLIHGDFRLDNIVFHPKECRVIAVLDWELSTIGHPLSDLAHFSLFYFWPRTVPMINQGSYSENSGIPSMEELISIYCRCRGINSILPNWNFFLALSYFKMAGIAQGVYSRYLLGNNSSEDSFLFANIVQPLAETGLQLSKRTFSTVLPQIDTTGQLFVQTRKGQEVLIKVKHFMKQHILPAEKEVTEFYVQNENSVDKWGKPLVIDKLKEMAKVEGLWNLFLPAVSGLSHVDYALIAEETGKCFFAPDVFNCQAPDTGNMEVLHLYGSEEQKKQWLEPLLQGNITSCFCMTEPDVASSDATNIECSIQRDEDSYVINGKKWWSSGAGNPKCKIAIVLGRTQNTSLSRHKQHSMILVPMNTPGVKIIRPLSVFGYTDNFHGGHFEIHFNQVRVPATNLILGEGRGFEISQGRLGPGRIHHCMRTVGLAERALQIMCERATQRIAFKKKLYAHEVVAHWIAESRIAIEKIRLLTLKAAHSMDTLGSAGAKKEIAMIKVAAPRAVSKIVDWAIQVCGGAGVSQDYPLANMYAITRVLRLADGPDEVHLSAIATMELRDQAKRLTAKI

[9] = biological target: T9, HeLa cell extract proteins (Homo sapiens, UniProt Q9UI30)
T9 construct: endogenous in cells; host or cells: HeLa cell extract
T9 sequence (Q9UI30 1-125): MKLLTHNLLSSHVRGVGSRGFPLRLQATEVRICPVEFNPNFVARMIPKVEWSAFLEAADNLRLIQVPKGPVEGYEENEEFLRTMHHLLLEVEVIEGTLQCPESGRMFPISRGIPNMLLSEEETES

[10] = HeLa, protein FBXO3 (ISOFORM 1 OF F-BOX ONLY PROTEIN 3)
[11] = HeLa, protein LDHA (ISOFORM 1 OF L-LACTATE DEHYDROGENASE A CHAIN.)

T2 sequence (O14744 whole entry): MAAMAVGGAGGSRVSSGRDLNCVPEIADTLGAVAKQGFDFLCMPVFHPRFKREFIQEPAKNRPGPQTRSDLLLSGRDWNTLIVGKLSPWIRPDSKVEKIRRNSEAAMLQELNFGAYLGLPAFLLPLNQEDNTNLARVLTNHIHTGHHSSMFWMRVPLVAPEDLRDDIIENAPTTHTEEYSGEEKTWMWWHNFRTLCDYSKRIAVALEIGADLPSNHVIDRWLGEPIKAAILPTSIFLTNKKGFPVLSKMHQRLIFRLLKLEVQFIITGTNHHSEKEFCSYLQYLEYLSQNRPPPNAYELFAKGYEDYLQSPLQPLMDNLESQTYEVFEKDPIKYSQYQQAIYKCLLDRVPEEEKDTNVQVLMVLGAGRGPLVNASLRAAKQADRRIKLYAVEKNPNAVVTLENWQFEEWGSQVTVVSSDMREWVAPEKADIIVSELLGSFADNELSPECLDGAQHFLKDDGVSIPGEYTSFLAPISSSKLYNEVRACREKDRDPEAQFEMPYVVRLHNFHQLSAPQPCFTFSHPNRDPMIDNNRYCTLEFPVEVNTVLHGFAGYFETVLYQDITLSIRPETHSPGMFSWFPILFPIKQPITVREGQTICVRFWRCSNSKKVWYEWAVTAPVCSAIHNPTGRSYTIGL
T5 sequence (P52948 whole entry): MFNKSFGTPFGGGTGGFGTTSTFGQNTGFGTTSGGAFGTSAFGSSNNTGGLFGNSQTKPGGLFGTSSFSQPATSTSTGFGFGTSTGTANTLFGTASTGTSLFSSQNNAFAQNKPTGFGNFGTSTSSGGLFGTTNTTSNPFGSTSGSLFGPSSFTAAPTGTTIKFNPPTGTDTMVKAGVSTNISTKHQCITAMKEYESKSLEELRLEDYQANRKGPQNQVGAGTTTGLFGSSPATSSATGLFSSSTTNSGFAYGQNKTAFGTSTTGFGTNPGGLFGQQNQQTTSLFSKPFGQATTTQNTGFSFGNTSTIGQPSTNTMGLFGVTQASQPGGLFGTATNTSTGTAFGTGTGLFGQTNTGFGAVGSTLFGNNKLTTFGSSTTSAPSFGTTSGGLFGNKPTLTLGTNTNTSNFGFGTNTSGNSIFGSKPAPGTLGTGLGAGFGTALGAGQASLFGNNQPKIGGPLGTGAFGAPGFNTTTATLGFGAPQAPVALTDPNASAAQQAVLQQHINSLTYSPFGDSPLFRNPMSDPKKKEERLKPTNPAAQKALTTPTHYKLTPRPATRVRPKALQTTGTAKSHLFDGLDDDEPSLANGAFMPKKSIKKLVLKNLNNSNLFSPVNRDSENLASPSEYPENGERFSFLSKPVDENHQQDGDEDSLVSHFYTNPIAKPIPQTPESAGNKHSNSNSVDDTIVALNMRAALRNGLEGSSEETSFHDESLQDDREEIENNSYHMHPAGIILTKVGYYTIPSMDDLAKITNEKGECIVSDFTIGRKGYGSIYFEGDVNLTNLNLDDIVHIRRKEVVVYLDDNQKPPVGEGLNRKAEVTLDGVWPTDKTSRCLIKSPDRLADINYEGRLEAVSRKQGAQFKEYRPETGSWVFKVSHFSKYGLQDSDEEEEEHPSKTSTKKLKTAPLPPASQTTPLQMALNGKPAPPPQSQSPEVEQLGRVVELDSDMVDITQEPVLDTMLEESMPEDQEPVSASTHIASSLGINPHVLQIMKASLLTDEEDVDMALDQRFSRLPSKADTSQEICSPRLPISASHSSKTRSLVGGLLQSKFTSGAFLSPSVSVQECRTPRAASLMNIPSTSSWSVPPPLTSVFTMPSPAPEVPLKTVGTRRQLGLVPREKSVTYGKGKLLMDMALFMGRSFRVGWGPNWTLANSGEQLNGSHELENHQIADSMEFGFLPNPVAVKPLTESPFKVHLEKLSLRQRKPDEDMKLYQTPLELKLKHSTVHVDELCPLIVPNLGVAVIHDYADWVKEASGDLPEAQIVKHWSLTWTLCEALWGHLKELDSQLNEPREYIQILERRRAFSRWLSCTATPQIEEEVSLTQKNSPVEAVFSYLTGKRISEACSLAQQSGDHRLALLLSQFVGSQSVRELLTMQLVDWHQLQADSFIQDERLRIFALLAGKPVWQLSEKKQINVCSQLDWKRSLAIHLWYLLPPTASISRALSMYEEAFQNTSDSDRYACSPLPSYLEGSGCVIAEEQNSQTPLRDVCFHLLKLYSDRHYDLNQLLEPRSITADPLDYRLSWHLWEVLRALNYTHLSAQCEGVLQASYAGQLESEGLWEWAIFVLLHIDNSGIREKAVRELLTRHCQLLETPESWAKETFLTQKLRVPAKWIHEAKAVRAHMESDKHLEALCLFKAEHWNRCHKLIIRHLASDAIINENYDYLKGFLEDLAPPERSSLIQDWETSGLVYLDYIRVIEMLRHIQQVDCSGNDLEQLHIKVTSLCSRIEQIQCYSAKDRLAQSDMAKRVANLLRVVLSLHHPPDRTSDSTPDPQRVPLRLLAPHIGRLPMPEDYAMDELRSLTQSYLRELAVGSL
T4 sequence (P26447 whole entry): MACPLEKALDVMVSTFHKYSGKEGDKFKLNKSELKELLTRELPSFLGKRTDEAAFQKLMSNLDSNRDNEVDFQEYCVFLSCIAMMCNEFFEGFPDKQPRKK

| Compound | fold changes relative to vehicle control ([1]; HeLa, protein BZW2) | fold changes relative to vehicle control ([2]; protein PRMT5, HeLa) | fold changes relative to vehicle control ([3]; HeLa, protein LDHA) | fold changes relative to vehicle control ([4]; protein S100A4, HeLa) | fold changes relative to vehicle control ([5]; HeLa, protein NUP98) | fold changes relative to vehicle control ([6]; HeLa, captured protein CS) | fold changes relative to vehicle control [7, 10] | fold changes relative to vehicle control ([8]; HeLa, protein ACAD11) | fold changes relative to vehicle control ([9]; HeLa, protein HSPC152) | fold changes relative to vehicle control ([1]; protein BZW2, HeLa) | fold changes relative to vehicle control ([5]; captured protein NUP98, HeLa) | fold changes relative to vehicle control ([6]; protein CS, HeLa) | fold changes relative to vehicle control ([7]; protein FBXO3, HeLa) | fold changes relative to vehicle control ([8]; captured protein ACAD11, HeLa) | also measured |
| --- | --- | --- | --- | --- | --- | --- | --- | --- | --- | --- | --- | --- | --- | --- | --- |
| Nc1nc2c(c(=O)[nH]1)N(C=O)C(CNc1ccc(C(=O)N[C@@H](CCC(=O)O)C(=O)O)cc1)CN2 (stereo partly drawn) [LEU, leucovorin] | 0.99 | 0.96 | 1.07 | 0.95 | 0.93 | 1.05 | 1.11 | 1.12 | 1.17 | – | – | – | – | – | – |
| NCCCNc1ccc(C(=O)NC(CCC(=O)O)C(=O)O)cc1 (stereo not drawn) [compound 7] | 1.12 | 1.05 | 0.95 | 1.03 | 1.05 | 1.3 | 0.99 | 1.05 | 1.29 | – | – | – | – | – | – |
| CCCCCCOc1cccc(Cc2cnc(N)nc2N)c1 [compound 2] | – | 1.12 | – | 1.43 | – | – | – | – | 1.18 | 1.57 | 1.11 | 1.99 | 1.05 | 0.77 | fold changes relative to vehicle control [3, 11]: 2.61 fold |
| CCCCCCOc1ccc(Cc2cnc(N)nc2N)cc1 [compound 1] | – | 0.93 | – | 0.83 | – | – | – | – | 0.96 | 1.11 | 1.05 | 1.38 | 0.98 | 1.02 | fold changes relative to vehicle control [3, 11]: 1.48 fold |
| Nc1nc2cccc(-c3ccccc3)c2n1Cc1ccc(Cl)c(Cl)c1 [compound 3] | – | 0.85 | – | 1.15 | – | – | – | – | 1.04 | 0.93 | 1.06 | 1.02 | 0.91 | 1.07 | fold changes relative to vehicle control ([3]; HeLa, protein LDHA (ISOFORM 1 OF L-LACTATE DEH[…] CHAIN.)): 0.92 fold |
| NCCOCCOCC(=O)Nc1nc2ncc(CNc3ccc(C(=O)NC(CCC(=O)O)C(=O)O)cc3)nc2c(=O)[nH]1 (stereo not drawn) [compound 6] | 1.1 | 1.21 | 1.23 | 1.18 | 1.21 | 1.32 | 1.01 | 0.95 | 1.36 | – | – | – | – | – | – |
| Nc1nc2[nH]cc(CCc3ccc(C(=O)N[C@@H](CCC(=O)O)C(=O)O)cc3)c2c(=O)[nH]1 [PTX, pemetrexed] | – | – | – | – | – | – | – | – | – | – | – | – | – | – | fold changes relative to vehicle control [1]: 0.98; fold changes relative to vehicle control [2]: 0.99; fold changes relative to vehicle control [3]: 1.15; fold changes relative to vehicle control [4]: 0.99; fold changes relative to vehicle control [5]: 1; fold changes relative to vehicle control [6]: 1.2; fold changes relative to vehicle control [7]: 1.04; fold changes relative to vehicle control [8]: 0.98; fold changes relative to vehicle control [9]: 1.21 |
